The inhibition is the drop in the measured response relative to a control, in per cent. One may read the Ki as the equilibrium dissociation constant of an inhibitor or competing ligand from its target. The low end stands for higher affinity, the high end for lower affinity.

The results in this text go back to article PMC12259978 (Scientific Reports, 2025).

For assay [1], the target named is T1, tyrosinase (Agaricus bisporus, UniProt C7FF04). The assay can be described thus: Tyrosinase inhibitory assay. It is filed as biochemical. The following applies: read-out: % inhibition of tyrosinase.
T1 sequence (C7FF04 whole entry): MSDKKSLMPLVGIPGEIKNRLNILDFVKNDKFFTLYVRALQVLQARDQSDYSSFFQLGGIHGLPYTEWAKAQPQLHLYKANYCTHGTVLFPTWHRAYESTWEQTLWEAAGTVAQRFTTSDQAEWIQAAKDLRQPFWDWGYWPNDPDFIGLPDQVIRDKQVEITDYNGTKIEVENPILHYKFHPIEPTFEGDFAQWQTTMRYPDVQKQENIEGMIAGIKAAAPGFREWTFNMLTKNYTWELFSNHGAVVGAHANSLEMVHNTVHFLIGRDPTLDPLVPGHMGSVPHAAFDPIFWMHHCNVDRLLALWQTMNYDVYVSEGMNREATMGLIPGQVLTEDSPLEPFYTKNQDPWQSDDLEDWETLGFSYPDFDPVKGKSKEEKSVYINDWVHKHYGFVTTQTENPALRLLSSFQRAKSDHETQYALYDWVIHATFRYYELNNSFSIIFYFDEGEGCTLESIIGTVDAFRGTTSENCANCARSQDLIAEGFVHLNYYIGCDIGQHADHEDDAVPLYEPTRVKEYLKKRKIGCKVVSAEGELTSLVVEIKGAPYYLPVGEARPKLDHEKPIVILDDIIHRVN
Assay [2] deals with T1, tyrosinase. The assay can be described thus: Enzyme kinetic study. The class given is biochemical.

With `O=C(CSc1nc2ccccc2cc1C=Nn1c(S)nnc1-c1ccccc1)Nc1ccccc1` [12a, 2-((3-(((3-mercapto-5-phenyl-4H-1,2,4-triazol-4-yl)imino)methyl)quinolin-2-yl)thio)-N-phenylacetamide], in assay [1], the inhibition at 50 µM is 32.2%.

As for `O=C(CSc1nc2ccccc2cc1C=Nn1c(S)nnc1-c1ccccc1)Nc1ccccc1Cl` [12b, N-(2-chlorophenyl)-2-((3-(((3-mercapto-5-phenyl-4H-1,2,4-triazol-4-yl)imino)methyl)quinolin-2-yl)thio)acetamide], the inhibition at 50 µM in assay [1] came out at 55.7%.

Consider `O=C(CSc1nc2ccccc2cc1C=Nn1c(S)nnc1-c1ccccc1)Nc1ccc(Cl)cc1` [12d, N-(4-chlorophenyl)-2-((3-(((3-mercapto-5-phenyl-4H-1,2,4-triazol-4-yl)imino)methyl)quinolin-2-yl)thio)acetamide], for which the inhibition at 50 µM in assay [1] is 66%.

Regarding `O=C(CSc1nc2ccccc2cc1C=Nn1c(S)nnc1-c1ccccc1)Nc1ccc(Cl)cc1Cl` [12e, N-(2,4-dichlorophenyl)-2-((3-(((3-mercapto-5-phenyl-4H-1,2,4-triazol-4-yl)imino)methyl)quinolin-2-yl)thio)acetamide], the inhibition at 50 µM in assay [1] stood at 48.3%.

`COc1ccc(NC(=O)CSc2nc3ccccc3cc2C=Nn2c(S)nnc2-c2ccccc2)cc1` [12f, 2-((3-(((3-Mercapto-5-phenyl-4H-1,2,4-triazol-4-yl)imino)methyl)quinolin-2-yl)thio)-N-(4-methoxyphenyl)acetamide]: in assay [1], the inhibition at 50 µM turned out to be 40.9%.

Take `Cc1ccc(NC(=O)CSc2nc3ccccc3cc2C=Nn2c(S)nnc2-c2ccccc2)cc1` [12g, 2-((3-(((3-Mercapto-5-phenyl-4H-1,2,4-triazol-4-yl)imino)methyl)quinolin-2-yl)thio)-N-(p-tolyl)acetamide]: the inhibition at 50 µM in assay [1] is 51.4%.

For the compound `Cc1ccccc1NC(=O)CSc1nc2ccccc2cc1C=Nn1c(S)nnc1-c1ccccc1` [12h, 2-((3-(((3-Mercapto-5-phenyl-4H-1,2,4-triazol-4-yl)imino)methyl)quinolin-2-yl)thio)-N-(o-tolyl)acetamide], the inhibition at 50 µM in assay [1] was 46%.

Regarding `Cc1cccc(NC(=O)CSc2nc3ccccc3cc2C=Nn2c(S)nnc2-c2ccccc2)c1C` [12i, N-(2,3-dimethylphenyl)-2-((3-(((3-mercapto-5-phenyl-4H-1,2,4-triazol-4-yl)imino)methyl)quinolin-2-yl)thio)acetamide], the inhibition at 50 µM in assay [1] was 43.8%.

Turning to `O=C(CSc1nc2ccccc2cc1C=Nn1c(S)nnc1-c1ccccc1)NCCc1ccccc1` [12j, 2-((3-(((3-Mercapto-5-phenyl-4H-1,2,4-triazol-4-yl)imino)methyl)quinolin-2-yl)thio)-N-phenethylacetamide], in assay [1], the inhibition at 50 µM stood at 86.6%. The compound also returned a Ki in assay [2] of 9.06 µM. Moreover, the type of inhibition result in assay [2] (Lineweaver-Burk plot, Vmax unchanged, Km increased) was “competitive inhibitor”.
